According to US10906915B2, “Substituted pyrazoloazepin-4-ones and their use as phosphodiesterase inhibitors” (LEO Pharma A/S, priority 2016, dated 2021):

Each molecule was assayed against human PDE4D catalytic domain (UniProt no. Q08499) (Homo sapiens (Human), UniProt Q08499) (assay: PDE4 assay (TR-FRET, FAM-cAMP cleavage)). Details: read-out: PDE4 IC50 range.
Format: biochemical
Method in brief: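 PDE4D catalytic domain ([…]) was incubated with unlabelled cAMP plus FAM-cAMP and titrated compound, stopped with binding buffer of metal-ion nanoparticles and Tb donor. AMP generation read by TR-FRET; IC50 as 50% inhibition of cleavage versus controls, reported as nM ranges.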

Sequence of human PDE4D catalytic domain (Q08499 380-740 limits assumed): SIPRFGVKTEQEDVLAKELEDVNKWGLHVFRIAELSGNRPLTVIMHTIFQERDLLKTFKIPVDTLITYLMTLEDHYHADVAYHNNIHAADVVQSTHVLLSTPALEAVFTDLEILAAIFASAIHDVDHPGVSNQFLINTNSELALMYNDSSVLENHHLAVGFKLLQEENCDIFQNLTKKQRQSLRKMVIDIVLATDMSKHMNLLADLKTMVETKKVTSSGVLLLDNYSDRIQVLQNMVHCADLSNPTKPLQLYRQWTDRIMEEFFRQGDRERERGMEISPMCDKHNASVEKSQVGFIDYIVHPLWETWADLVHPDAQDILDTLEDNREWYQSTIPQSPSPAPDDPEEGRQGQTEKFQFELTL

| SMILES | IC50 [nM] |
| --- | --- |
| CCc1nn(CC(C)(C)COC(=O)c2ccc(C(=O)N(C)C)cc2)c2c1C(=O)NCC1(CCOCC1)C2 [Example 331, [3-(3-ethyl-4-oxo-spiro[6,8-dihydro-5H-pyrazolo[4,3-c]azepine-7,4′-tetrahydropyran]-1-yl)-2,2-dimethyl-propyl] 4-(dimethylcarbamoyl)benzoate] | < 100 |
| CCc1nn(CC(C)(C)COC(=O)c2ccc(C(=O)NC(C)C)cc2)c2c1C(=O)NCC1(CCOCC1)C2 [Example 332, [3-(3-ethyl-4-oxo-spiro[6,8-dihydro-5H-pyrazolo[4,3-c]azepme-7,4′-tetrahydropyran]-1-yl)-2,2-dimethyl-propyl] 4-(isopropylcarbamoyl)benzoate] | < 100 |
| CCc1nn(CC(C)(C)COC(=O)c2ccc(C(=O)N3CCCC3)cc2)c2c1C(=O)NCC1(CCOCC1)C2 [Example 333, [3-(3-ethyl-4-oxo-spiro[6,8-dihydro-5H-pyrazolo[4,3-c]azepine-7,4′-tetrahydropyran]-1-yl)-2,2-dimethyl-propyl] 4-(pyrrolidine-1-carbonyl)benzoate] | < 100 |
| CCc1nn(CC(C)(C)COC(=O)c2ccc(C(=O)N3CCCCC3)cc2)c2c1C(=O)NCC1(CCOCC1)C2 [Example 334, [3-(3-ethyl-4-oxo-spiro[6,8-dihydro-5H-pyrazolo[4,3-c]azepine-7,4′-tetrahydropyran]-1-yl)-2,2 dimethyl-propyl] 4-(piperidine-1-carbonyl)benzoate] | < 100 |
| CCc1nn(CC(C)(C)COC(=O)c2ccc(C(=O)N3CCNCC3)cc2)c2c1C(=O)NCC1(CCOCC1)C2 [Example 335, [3-(3-ethyl-4-oxo-spiro[6,8-dihydro-5H-pyrazolo[4,3-c]azepine-7,4′-tetrahydropyran]-1-yl)-2,2-dimethyl-propyl] 4-(piperazine-1-carbonyl)benzoate] | < 100 |
| CCc1nn(CC(C)(C)COC(=O)c2ccc(C(=O)N3CCOCC3)cc2)c2c1C(=O)NCC1(CCOCC1)C2 [Example 336, [3-(3-ethyl-4-oxo-spiro[6,8-dihydro-5H-pyrazolo[4,3-c]azepine-7,4′-tetrahydropyran]-1-yl)-2,2-dimethyl-propyl] 4-(morpholine-4-carbonyl)benzoate] | < 100 |
| CCc1nn(CC(C)(C)COC(=O)c2ccc(C(=O)N3CCN(C)CC3)cc2)c2c1C(=O)NCC1(CCOCC1)C2 [Example 337, [3-(3-ethyl-4-oxo-spiro[6,8-dihydro-5H-pyrazolo[4,3-c]azepine-7,4′-tetrahydropyran]-1-yl)-2,2-dimethyl-propyl] 4-(4-methylpiperazine-1-carbonyl)benzoate] | < 100 |
| CCc1nn(CC(C)(C)COC(=O)c2ccc(C(=O)N3CCN(C(C)=O)CC3)cc2)c2c1C(=O)NCC1(CCOCC1)C2 [Example 338, [3-(3-ethyl-4-oxo-spiro[6,8-dihydro-5H-pyrazolo[4,3-c]azepine-7,4′-tetrahydropyran]-1-yl)-2,2-dimethyl-propyl] 4-(4-acetylpiperazine-1-carbonyl)benzoate] | < 100 |
| CCc1nn(CC(C)(C)COC(=O)c2cccc(C(=O)NC)c2)c2c1C(=O)NCC1(CCOCC1)C2 [Example 340, [3-(3-ethyl-4-oxo-spiro[6,8-dihydro-5H-pyrazolo[4,3-c]azepine-7,4′-tetrahydropyran]-1-yl)-2,2-dimethyl-propyl] 3-(methylcarbamoyl)-benzoate] | < 100 |
| CCNC(=O)c1cccc(C(=O)OCC(C)(C)Cn2nc(CC)c3c2CC2(CCOCC2)CNC3=O)c1 [Example 341, [3-(3-ethyl-4-oxo-spiro[6,8-dihydro-5H-pyrazolo[4,3-c]azepine-7,4′-tetrahydropyran]-1-yl)-2,2-dimethyl-propyl] 3-(ethylcarbamoyl)-benzoate] | < 100 |
| CCc1nn(CC(C)(C)COC(=O)c2cccc(C(=O)N(C)C)c2)c2c1C(=O)NCC1(CCOCC1)C2 [Example 342, [3-(3-ethyl-4-oxo-spiro[6,8-dihydro-5H-pyrazolo[4,3-c]azepine-7,4′-tetrahydropyran]-1-yl)-2,2-dimethyl-propyl] 3-(dimethylcarbamoyl)-benzoate] | < 100 |
| CCc1nn(CC(C)(C)COC(=O)c2cccc(C(=O)NC(C)C)c2)c2c1C(=O)NCC1(CCOCC1)C2 [Example 343, [3-(3-ethyl-4-oxo-spiro[6,8-dihydro-5H-pyrazolo[4,3-c]azepine-7,4′-tetrahydropyran]-1-yl)-2,2-dimethyl-propyl] 3-(isopropylcarbamoyl)-benzoate] | < 100 |
| CCc1nn(CC(C)(C)COC(=O)c2cccc(C(=O)N3CCCC3)c2)c2c1C(=O)NCC1(CCOCC1)C2 [Example 344, [3-(3-ethyl-4-oxo-Spiro[6,8-dihydro-5H-pyrazolo[4,3-c]azepine-7,4′-tetrahydropyran]-1-yl)-2,2-dimethyl-propyl] 3-(pyrrolidine-1-carbonyl)benzoate] | < 100 |
| CCc1nn(CC(C)(C)COC(=O)c2cccc(C(=O)N3CCCCC3)c2)c2c1C(=O)NCC1(CCOCC1)C2 [Example 345] | < 100 |
| CCc1nn(CC(C)(C)COC(=O)c2cccc(C(=O)N3CCNCC3)c2)c2c1C(=O)NCC1(CCOCC1)C2 [Example 346, [3-(3-ethyl-4-oxo-spiro[6,8-dihydro-5H-pyrazolo[4,3-c]azepine-7,4′-tetrahydropyran]-1-yl)-2,2-dimethyl-propyl] 3-(piperazine-1-carbonyl)benzoate] | < 100 |
| CCc1nn(CC(C)(C)COC(=O)c2cccc(C(=O)N3CCOCC3)c2)c2c1C(=O)NCC1(CCOCC1)C2 [Example 347, [3-(3-ethyl-4-oxo-spiro[6,8-dihydro-5H-pyrazolo[4,3-c]azepine-7,4′-tetrahydropyran]-1-yl)-2,2-dimethyl-propyl] 3-(morpholine-4-carbonyl)benzoate] | < 100 |
| CCc1nn(CC(C)(C)COC(=O)c2cccc(C(=O)N3CCN(C)CC3)c2)c2c1C(=O)NCC1(CCOCC1)C2 [Example 348, [3-(3-ethyl-4-oxo-spiro[6,8-dihydro-5H-pyrazolo[4,3-c]azepine-7,4′-tetrahydropyran]-1-yl)-2,2-dimethyl-propyl] 3-(4-methylpiperazine-1-carbonyl)benzoate] | < 100 |
| CCc1nn(CC(C)(C)COC(=O)c2cccc(C(=O)N3CCN(C(C)=O)CC3)c2)c2c1C(=O)NCC1(CCOCC1)C2 [Example 349, [3-(3-ethyl-4-oxo-spiro[6,8-dihydro-5H-pyrazolo[4,3-c]azepine-7,4′-tetrahydropyran]-1-yl)-2,2-dimethyl-propyl] 3-(4-acetylpiperazine-1-carbonyl)benzoate] | < 100 |
| CCc1nn(CC2(COC(=O)c3ccc(C)cc3)CC2)c2c1C(=O)NCC1(CCOCC1)C2 [Example 351, [1-[(3-ethyl-4-oxo-spiro[6,8-dihydro-5H-pyrazolo[4,3-c]azepine-7,4′-tetrahydropyran]-1-yl)methyl]cyclopropyl]methyl 4-methylbenzoate] | < 100 |
| CCc1nn(CC2(COC(=O)c3cccc(F)c3)CC2)c2c1C(=O)NCC1(CCOCC1)C2 [Example 352, [1-[(3-ethyl-4-oxo-spiro[6,8-dihydro-5H-pyrazolo[4,3-c]azepine-7,4′-tetrahydropyran]-1-yl)methyl]cyclopropyl]methyl 3-fluorobenzoate] | < 100 |
| CCc1nn(CC2(COC(=O)c3cccc(OC)c3)CC2)c2c1C(=O)NCC1(CCOCC1)C2 [Example 354, [1-[(3-ethyl-4-oxo-spiro[6,8-dihydro-5H-pyrazolo[4,3-c]azepine-7,4′-tetrahydropyran]-1-yl)methyl]cyclopropyl]methyl 3-methoxybenzoate] | < 100 |
| CCc1nn(CC2(COC(=O)c3ccc(Cl)cc3)CC2)c2c1C(=O)NCC1(CCOCC1)C2 [Example 355, [1-[(3-ethyl-4-oxo-spiro[6,8 dihydro-5H-pyrazolo[4,3-c]azepine-7,4′-letrahydropyran]-1-yl)methyl]cyclopropyl]methyl 4-chlorobenzoate] | < 100 |
| CCc1nn(CC2(COC(=O)c3ccccc3)COC2)c2c1C(=O)NCC1(CCOCC1)C2 [Example 356, [3-[(3-ethyl-4-oxo-spiro[6,8-dihydro-5H-pyrazolo[4,3-c]azepine-7,4′-tetrahydropyran]-1-yl)methyl]oxetan-3-yl]methyl benzoate] | < 100 |
| CCc1nn(CC2(COC(=O)c3ccc(C)cc3)COC2)c2c1C(=O)NCC1(CCOCC1)C2 [Example 357, [3-[(3-ethyl-4-oxo-spiro[6,8-dihydro-5H-pyrazolo[4,3-c]azepine-7,4′-tetrahydropyran]-1-yl)methyl]oxetan-3-yl]methyl 4-methylbenzoate] | < 100 |
| CCc1nn(CC2(COC(=O)c3cccc(F)c3)COC2)c2c1C(=O)NCC1(CCOCC1)C2 [Example 358, [3-[(3-ethyl-4-oxo-spiro[6,8-dihydro-5H-pyrazolo[4,3-c]azepine-7,4′-tetrahydropyran]-1-yl)methyl]oxetan-3-yl]methyl 3-fluorobenzoate] | < 100 |
| CCc1nn(CC2(COC(=O)c3ccc(F)cc3)COC2)c2c1C(=O)NCC1(CCOCC1)C2 [Example 359, [3-[(3-ethyl-4-oxo-spiro[6,8-dihydro-5H-pyrazolo[4,3-c]azepine-7,4′-tetrahydropyran]-1-yl)methyl]oxetan-3-yl]methyl 4-fluorobenzoate] | < 100 |
| CCc1nn(CC2(COC(=O)c3cccc(OC)c3)COC2)c2c1C(=O)NCC1(CCOCC1)C2 [Example 360, [3-[(3-ethyl-4-oxo-spiro[6,8-dihydro-5H-pyrazolo[4,3-c]azepine-7,4′-tetrahydropyran]-1-yl)methyl]oxetan-3-yl]methyl 3-methoxybenzoate] | < 100 |
| CCc1nn(CC2(COC(=O)c3ccc(Cl)cc3)COC2)c2c1C(=O)NCC1(CCOCC1)C2 [Example 361, [3-[(3-ethyl-4-oxo-spiro[6,8-dihydro-5H-pyrazolo[4,3-c]azepine-7,4′-tetrahydropyran]-1-yl)methyl]oxetan-3-yl]methyl 4-chlorobenzoate] | < 100 |
| CCc1nn(C(C)CCOC(=O)c2ccccc2)c2c1C(=O)NCC1(CCOCC1)C2 (centres unmarked) [Example 362, 3-(3-ethyl-4-oxo-spiro[6,8-dihydro-5H-pyrazolo[4,3-c]azepine-7,4′-tetrahydropyran]-1-yl)butyl benzoate] | < 100 |
